Where two headings read alike, the source gives them in different places.
Key:
human H3 receptor [1] = target: T1, human H3 receptor (Homo sapiens, UniProt Q9Y5N1); assay: H3 receptor binding (N-[3H]-α-methylhistamine displacement); details: membranes of SK-N-MC cells expressing cloned human H3 receptor, 0.8 nM N-[3H]-α-methylhistamine, 60 min at 25° C.
T1 construct: expressed in transfected cells

Rat SERT = target: T2, Rat SERT (Rattus norvegicus, UniProt P31652); assay: Rat brain SERT binding ([3H]-citalopram displacement); details: rat brain membranes without cerebellum, 0.6 nM [3H]-citalopram, 60 min at 25° C.
T2 construct: A rat brain without cerebellum (Zivic Laboratories, Inc.—Pittsburgh, Pa.) was homogenized; tissue Zivic Laboratories, Inc; host or cells: rat brain without cerebellum, membranes
Procedure: The supernatant was removed and re-centrifuged at 15,000 rpm for 30 min. […] Membranes were incubated with 0.6 nM [^3H]-Citalopram plus/minus test compounds for 60 min at 25° C. and harvested by rapid filtration over GF/C glass fiber filters (pretreated with 0.3% polyethylenimine) followed by four washes with ice-cold buffer.

human SERT = target: T3, human SERT (Homo sapiens, UniProt P31645); assay: Human SERT binding (3H-citalopram displacement); details: HEK293 membranes expressing human SERT, rt 1 h
T3 construct: expressed in transfected cells; host or cells: HEK293 membranes
Procedure: Homogenized HEK293 (Human Embryonic Kidney) membranes expressing the human SERT were incubated with ^3H-citalopram (SERT) at rt for 1 h in 50 mM Tris, 120 mM NaCl, 5 mM KCl (pH 7.4). […] The membranes were washed and the radioactivity was counted as above.

human H3 receptor [2] = target: T1, human H3 receptor; assay: Cyclic AMP accumulation (β-galactosidase reporter, Schild analysis); assay type: cell-based; details: histamine agonist, forskolin 5 μM, Schild regression of pEC50 values
Procedure: Sublines of SK-N-MC cells were created that expressed a reporter construct and the human H3 receptor. The reporter gene (β-galactosidase) is under the control of multiple cyclic AMP responsive elements. In 96-well plates, histamine was added directly to the cell media followed 5 min later by an addition of forskolin (5 μM final concentration). When appropriate, antagonists were added 10 min prior to agonist addition. After a 6-h incubation at 37° C., the media was aspirated and the cells washed with 200 μL of phosphate-buffered saline followed by a second aspiration. Cells were lysed with 25 μL 0.1× assay buffer (10 mM Na-phosphate, pH 8, 0.2 mM MgSO4, 0.01 mM MnCl2) and incubated at rt for 10 min. […] Color was developed using 25 μL of 1 mg/mL substrate solution (chlorophenolred β-D galactopyranoside; Roche Molecular Biochemicals, Indianapolis, In.).

[3] = SK-N-MC cells expressing human H3 receptor and CRE-β-galactosidase reporter, read-out: pA2 (converted)

T1 sequence (Q9Y5N1 whole entry): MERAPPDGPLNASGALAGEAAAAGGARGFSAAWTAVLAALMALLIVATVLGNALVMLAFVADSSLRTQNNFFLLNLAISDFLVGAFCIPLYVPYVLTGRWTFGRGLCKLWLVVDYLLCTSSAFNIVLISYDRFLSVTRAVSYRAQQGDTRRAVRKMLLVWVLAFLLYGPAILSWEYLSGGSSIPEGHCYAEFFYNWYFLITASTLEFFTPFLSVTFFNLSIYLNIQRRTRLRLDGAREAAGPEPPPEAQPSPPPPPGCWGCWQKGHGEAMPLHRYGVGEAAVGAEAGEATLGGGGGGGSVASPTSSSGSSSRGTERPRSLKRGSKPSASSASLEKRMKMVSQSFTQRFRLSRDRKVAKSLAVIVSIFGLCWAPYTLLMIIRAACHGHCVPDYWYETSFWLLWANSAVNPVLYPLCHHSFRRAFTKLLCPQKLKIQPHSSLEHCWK
T2 sequence (P31652 whole entry): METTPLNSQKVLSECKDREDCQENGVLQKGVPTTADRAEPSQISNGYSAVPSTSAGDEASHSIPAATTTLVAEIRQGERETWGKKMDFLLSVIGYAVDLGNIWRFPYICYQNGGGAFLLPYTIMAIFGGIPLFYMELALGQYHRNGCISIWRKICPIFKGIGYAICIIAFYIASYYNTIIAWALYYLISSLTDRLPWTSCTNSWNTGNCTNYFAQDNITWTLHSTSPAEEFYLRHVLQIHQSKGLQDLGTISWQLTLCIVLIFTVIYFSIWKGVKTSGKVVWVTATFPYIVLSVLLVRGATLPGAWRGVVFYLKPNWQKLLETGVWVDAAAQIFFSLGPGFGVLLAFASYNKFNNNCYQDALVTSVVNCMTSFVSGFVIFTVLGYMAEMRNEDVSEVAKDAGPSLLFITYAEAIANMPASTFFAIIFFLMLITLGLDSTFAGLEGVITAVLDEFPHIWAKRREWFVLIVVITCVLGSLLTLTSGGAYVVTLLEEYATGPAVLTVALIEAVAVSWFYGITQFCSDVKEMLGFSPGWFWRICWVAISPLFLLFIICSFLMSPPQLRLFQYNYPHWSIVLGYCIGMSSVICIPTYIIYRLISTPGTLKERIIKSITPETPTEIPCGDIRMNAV
T3 sequence (P31645 whole entry): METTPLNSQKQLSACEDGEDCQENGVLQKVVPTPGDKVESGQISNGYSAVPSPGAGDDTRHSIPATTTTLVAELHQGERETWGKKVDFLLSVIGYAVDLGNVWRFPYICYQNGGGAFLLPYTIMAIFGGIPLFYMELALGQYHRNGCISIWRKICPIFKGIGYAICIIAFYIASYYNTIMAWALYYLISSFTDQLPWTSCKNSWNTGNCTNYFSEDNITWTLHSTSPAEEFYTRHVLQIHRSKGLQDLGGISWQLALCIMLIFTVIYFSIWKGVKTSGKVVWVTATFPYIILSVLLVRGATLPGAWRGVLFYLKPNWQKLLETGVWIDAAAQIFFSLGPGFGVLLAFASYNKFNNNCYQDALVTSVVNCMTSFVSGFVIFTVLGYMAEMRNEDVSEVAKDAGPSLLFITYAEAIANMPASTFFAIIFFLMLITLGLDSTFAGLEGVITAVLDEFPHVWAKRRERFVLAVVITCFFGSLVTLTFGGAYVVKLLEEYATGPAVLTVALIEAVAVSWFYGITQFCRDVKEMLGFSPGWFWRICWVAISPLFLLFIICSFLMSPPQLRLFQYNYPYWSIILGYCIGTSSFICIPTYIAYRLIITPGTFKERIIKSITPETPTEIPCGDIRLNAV

SMILES	Ki (human H3 receptor [1]) [nM]	Ki (Rat SERT; read-out: Rat SERT Ki) [nM]	Ki (human SERT) [nM]	Kb (human H3 receptor [2]; [3]) [nM]	Ki (Rat SERT; Rat SERT Ki (nM)) [nM]	Kb (human H3 receptor [2]; pA2, SK-N-MC cells expressing human H3 receptor and CRE-β-galactosidase reporter) [nM]
COc1ccc(C2CN(C)Cc3cc(OCCCN4CCCC(O)C4)ccc32)cc1 (mixture of isomers) [Example 20, 1-{3-[4-(4-Methoxy-phenyl)-2-methyl-1,2,3,4-tetrahydro-isoquinolin-7-yloxy]-propyl}-piperidin-3-ol]	2	4	3	1		
CSc1ccc(C2CN(C)Cc3cc(OCC4CN(C(C)C)CCO4)ccc32)cc1 (mixture of isomers) [Example 262, 7-(4-Isopropyl-morpholin-2-ylmethoxy)-2-methyl-4-(4-methylsulfanyl-phenyl)-1,2,3,4-tetrahydro-isoquinoline]	10	5		6.31		
CSc1ccc(C2CN(C)Cc3cc(OCC4CN(C5CC5)CCO4)ccc32)cc1 (mixture of isomers) [Example 263, 7-(4-Cyclopropyl-morpholin-2-ylmethoxy)-2-methyl-4-(4-methylsulfanyl-phenyl)-1,2,3,4-tetrahydro-isoquinoline]	11	11		7.94		
COc1ccc(C2CN(C)Cc3cc(OCCCN4CCC(C#N)CC4)ccc32)cc1 (racemic) [Example 37, 1-{3-[4-(4-Methoxy-phenyl)-2-methyl-1,2,3,4-tetrahydro-isoquinolin-7-yloxy]-propyl}-piperidine-4-carbonitrile]	9	8	6	6.31		
CN1Cc2cc(OCCCN3CCOCC3)ccc2C(c2ccc([S+](C)[O-])cc2)C1 (single isomer, unassigned) [Example 165A, 4-(4-Methanesulfinyl-phenyl)-2-methyl-7-(3-morpholin-4-yl-propoxy)-1,2,3,4-tetrahydro-isoquinoline]	2	91		3.16		
COc1ccc(C2CN(C)Cc3cc(OC[C@H]4CN(C(C)C)CCO4)ccc32)cc1 (single isomer, unassigned) [Example 256A, 7-(4-Isopropyl-morpholin-2R-ylmethoxy)-4-(4-methoxy-phenyl)-2-methyl-1,2,3,4-tetrahydro-isoquinoline]	7	12		5.01		
COc1ccc(C2CN(C)Cc3cc(OC[C@@H]4CN(C5CC5)CCO4)ccc32)cc1 (single isomer, unassigned) [Example 260A, 7-(4-Cyclopropyl-morpholin-2S-ylmethoxy)-4-(4-methoxy-phenyl)-2-methyl-1,2,3,4-tetrahydro-isoquinoline]	2	17		1		
CN1Cc2cc(OCCCN3CCC(F)CC3)ccc2C(c2cc(Cl)ccc2Cl)C1 (centres unmarked) [Example 55, 4-(2,5-Dichloro-phenyl)-7-[3-(4-fluoro-piperidin-1-yl)-propoxy]-2-methyl-1,2,3,4-tetrahydro-isoquinoline]	8				209	5.01
CN1Cc2cc(OCCCN3CCC(F)CC3)ccc2C(c2ccc(Cl)c(Cl)c2)C1 (centres unmarked) [Example 58, 4-(3,4-Dichloro-phenyl)-7-[3-(4-fluoro-piperidin-1-yl)-propoxy]-2-methyl-1,2,3,4-tetrahydro-isoquinoline]	9	8		31.6		
COc1ccc(C2CNCc3cc(OCCCN4CCCCC4)ccc32)cc1 (centres unmarked) [Example 69, 4-(4-Methoxy-phenyl)-7-(3-piperidin-1-yl-propoxy)-1,2,3,4-tetrahydro-isoquinoline]	1	9		0.794		
COc1ccc(C2CN(C3CC3)Cc3cc(OCCCN4CCCCC4)ccc32)cc1 (centres unmarked) [Example 73, 2-Cyclopropyl-4-(4-methoxy-phenyl)-7-(3-piperidin-1-yl-propoxy)-1,2,3,4-tetrahydro-isoquinoline]	2	83		1		
CCCN1CCC(COc2ccc3c(c2)CN(C)CC3c2ccc(OC)cc2)CC1 (centres unmarked) [Example 85, 4-(4-Methoxy-phenyl)-2-methyl-7-(1-propyl-piperidin-4-ylmethoxy)-1,2,3,4-tetrahydro-isoquinoline]	8	7		6.31		
COc1ccc(C2CNCc3cc(OCCCN4CCC(F)CC4)ccc32)cc1 (centres unmarked) [Example 147, 7-[3-(4-Fluoro-piperidin-1-yl)-propoxy]-4-(4-methoxy-phenyl)-1,2,3,4-tetrahydro-isoquinoline]	9	18		10		
CN1Cc2cc(OCCCN3CCC(F)CC3)ccc2C(c2ccc(Br)cc2)C1 (centres unmarked) [Example 213, 4-(4-Bromo-phenyl)-7-[3-(4-fluoro-piperidin-1-yl)-propoxy]-2-methyl-1,2,3,4-tetrahydro-isoquinoline]	11	6		10		
CSc1ccc(C2CN(C)Cc3cc(OCC4CN(C5CC5)C4)ccc32)cc1 (centres unmarked) [Example 237, 7-(1-Cyclopropyl-azetidin-3-ylmethoxy)-2-methyl-4-(4-methylsulfanyl-phenyl)-1,2,3,4-tetrahydro-isoquinoline]	5	3		15.8		
CSc1ccc(C2CN(C)Cc3cc(OCC4CN(C5CCC5)C4)ccc32)cc1 (centres unmarked) [Example 238, 7-(1-Cyclobutyl-azetidin-3-ylmethoxy)-2-methyl-4-(4-methylsulfanyl-phenyl)-1,2,3,4-tetrahydro-isoquinoline]	5	4		12.6		
COc1ccc(C2CN(C)Cc3cc(OCCCN4CCCCC4)c(C)cc32)cc1 (centres unmarked) [Example 265, 4-(4-Methoxy-phenyl)-2,6-dimethyl-7-(3-piperidin-1-yl-propoxy)-1,2,3,4-tetrahydro-isoquinoline]	2	13		1.58		
COc1ccc(C2CN(C)Cc3cc(C#CCCN4CCC(F)(F)CC4)ccc32)cc1 (centres unmarked) [Example 274, 7-[4-(4,4-Difluoro-piperidin-1-yl)-but-1-ynyl]-4-(4-methoxy-phenyl)-2-methyl-1,2,3,4-tetrahydro-isoquinoline]	65	14	27			
COc1ccc(C2CN(C)Cc3cc(C#CCCN4CCOCC4)ccc32)cc1 (centres unmarked) [Example 276, 4-(4-Methoxy-phenyl)-2-methyl-7-(4-morpholin-4-yl-but-1-ynyl)-1,2,3,4-tetrahydro-isoquinoline]	86	18	9			
COc1ccc(C2CN(C)Cc3cc(C#CCCN4CCSCC4)ccc32)cc1 (centres unmarked) [Example 277, 4-(4-Methoxy-phenyl)-2-methyl-7-(4-thiomorpholin-4-yl-but-1-ynyl)-1,2,3,4-tetrahydro-isoquinoline]	45	37	13			
COc1ccc(C2CN(C)Cc3cc(C#CCCN4CCN(C(C)C)CC4)ccc32)cc1 (centres unmarked) [Example 278, 7-[4-(4-Isopropyl-piperazin-1-yl)-but-1-ynyl]-4-(4-methoxy-phenyl)-2-methyl-1,2,3,4-tetrahydro-isoquinoline]	315	5	9			
COc1ccc(C2CN(C)Cc3cc(CCCCN4CCC(F)(F)CC4)ccc32)cc1 (centres unmarked) [Example 280, 7-[4-(4,4-Difluoro-piperidin-1-yl)-butyl]-4-(4-methoxy-phenyl)-2-methyl-1,2,3,4-tetrahydro-isoquinoline]	96	4	13			
COc1ccc(C2CN(C)Cc3cc(CCCCN4CCOCC4)ccc32)cc1 (centres unmarked) [Example 281, 4-(4-Methoxy-phenyl)-2-methyl-7-(4-morpholin-4-yl-butyl)-1,2,3,4-tetrahydro-isoquinoline]	23	6	8			
COc1ccc(C2CN(C)Cc3cc(CCCCN4CCSCC4)ccc32)cc1 (centres unmarked) [Example 282, 4-(4-Methoxy-phenyl)-2-methyl-7-(4-thiomorpholin-4-yl-butyl)-1,2,3,4-tetrahydro-isoquinoline]	25	6	17			
COc1ccc(C2CN(C)Cc3cc(CCCCN4CCN(C(C)C)CC4)ccc32)cc1 (centres unmarked) [Example 283, 7-[4-(4-Isopropyl-piperazin-1-yl)-butyl]-4-(4-methoxy-phenyl)-2-methyl-1,2,3,4-tetrahydro-isoquinoline]	13	4	7			
